Drawing on PubChem BioAssay (NCI), this text covers GI50 and TGI for seven molecules.

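48-hour exposure; five concentrations; linearly interpolated endpoints. Abbreviation: GI50, concentration required for 50% inhibition of growth. The concentration for full growth arrest is given as TGI.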

Some test systems named below: A549 NSCLC; ACHN renal; BT-549 breast; COLO 205 colon; HOP-92 NSCLC; HS 578T breast; OVCAR-5 ovarian; SK-MEL-5 melanoma; SNB-19 CNS; UACC-62 melanoma.
Holding throughout (experiment): inhibition of tumour cell growth, NCI panel, 48 h

`COc1cccc(-c2cc3c4c(nc5ccccc53)C(=O)c3cccnc3-c4n2)c1`: the GI50 in the experiment on A549 NSCLC is 1.44 µM; with ACHN renal it was 2.21 µM; with BT-549 breast it was 10.6 µM; in the experiment with COLO 205 colon it was 5.56 µM; in the experiment on HOP-92 NSCLC it was 4.3 µM; in the experiment on HS 578T breast, 3.18 µM. Also, the GI50 was 3.05 µM in the experiment on OVCAR-5 ovarian, 0.578 µM with SK-MEL-5 melanoma, 4.2 µM in the experiment with SNB-19 CNS and 3.88 µM in the experiment with UACC-62 melanoma. Also, the TGI with A549 NSCLC was 3.82 µM; with ACHN renal, 9.82 µM; with BT-549 breast, 28.1 µM; in the experiment on COLO 205 colon it was 10.9 µM; in the experiment on HOP-92 NSCLC, 19.8 µM; with HS 578T breast, 11.2 µM. The TGI is 8.92 µM with OVCAR-5 ovarian, 1.76 µM in the experiment with SK-MEL-5 melanoma, 11.2 µM with SNB-19 CNS and 10.5 µM in the experiment on UACC-62 melanoma.
As for `Nc1ccccc1C#C/C=C\C#Cc1cccc(O)c1`, the GI50 is 2.78 µM in the experiment with A549 NSCLC; 2.64 µM in the experiment on ACHN renal; 7.12 µM in the experiment with BT-549 breast; 8.45 µM in the experiment with COLO 205 colon; 11.9 µM in the experiment on HOP-92 NSCLC; 3.39 µM in the experiment on HS 578T breast. In addition, the GI50 is 7.64 µM with OVCAR-5 ovarian, 2.47 µM in the experiment with SK-MEL-5 melanoma, 17.1 µM in the experiment on SNB-19 CNS and 1.87 µM in the experiment on UACC-62 melanoma. The TGI with A549 NSCLC was 15.7 µM; in the experiment with ACHN renal, 18.8 µM; in the experiment on BT-549 breast, 25.8 µM; with COLO 205 colon it was 23 µM; with HOP-92 NSCLC, greater than 51.2 µM; with HS 578T breast, 22.8 µM. Further, the TGI with OVCAR-5 ovarian was 23 µM; in the experiment on SK-MEL-5 melanoma, 14.5 µM; with SNB-19 CNS it was greater than 55.7 µM; with UACC-62 melanoma it was 6.6 µM.
On to `COc1ccc(/C=C(\C(=O)NCc2cccnc2)S(=O)(=O)c2ccccc2)cc1OC`, for which the GI50 in the experiment on A549 NSCLC was 2.86 µM; in the experiment on ACHN renal it was 3.16 µM; with BT-549 breast, 2.45 µM; in the experiment with COLO 205 colon, 2.77 µM; in the experiment with HOP-92 NSCLC, 2.59 µM; with HS 578T breast it was 3.41 µM. Besides, the GI50 in the experiment on OVCAR-5 ovarian is 3.31 µM; with SK-MEL-5 melanoma it was 2.97 µM; with SNB-19 CNS, 3.69 µM; in the experiment on UACC-62 melanoma, 1.76 µM. The TGI with A549 NSCLC amounted to 13.4 µM; in the experiment on ACHN renal, 11.5 µM; in the experiment with BT-549 breast, 6.69 µM; with COLO 205 colon it was 6.63 µM; in the experiment with HOP-92 NSCLC, 7.33 µM; with HS 578T breast, 26.3 µM. Also, the TGI was determined as 10.3 µM with OVCAR-5 ovarian, 10.9 µM in the experiment with SK-MEL-5 melanoma, 13.1 µM in the experiment on SNB-19 CNS and 3.74 µM in the experiment on UACC-62 melanoma.
On to `CC(C)CCNCC(O)Cn1c2ccccc2c2ccccc21` (centres undefined), for which the GI50 is 16.4 µM in the experiment on A549 NSCLC; 10.5 µM with ACHN renal; 16.5 µM with BT-549 breast; 2 µM in the experiment on COLO 205 colon; 2.71 µM with HOP-92 NSCLC; 13.8 µM in the experiment with HS 578T breast. Moreover, the GI50 is 12.4 µM with OVCAR-5 ovarian, 2.27 µM in the experiment with SK-MEL-5 melanoma, 13.8 µM in the experiment on SNB-19 CNS and 10.4 µM in the experiment with UACC-62 melanoma. In addition, the TGI with A549 NSCLC worked out at 31.9 µM; in the experiment with ACHN renal, 23.4 µM; in the experiment on BT-549 breast, 31.4 µM; in the experiment on COLO 205 colon, 3.95 µM; in the experiment with HOP-92 NSCLC, 18.1 µM; in the experiment on HS 578T breast, 38.9 µM. Further, the TGI in the experiment with OVCAR-5 ovarian was found to be 25.7 µM; in the experiment with SK-MEL-5 melanoma, 6.25 µM; with SNB-19 CNS it was 28.8 µM; with UACC-62 melanoma it was 22.4 µM.
For `COc1ccccc1CNCCCN1C(=O)c2ccc3c4c(ccc(c24)C1=O)C(=O)N(CCCN)C3=O`, the GI50 in the experiment on A549 NSCLC was 1.87 µM; with ACHN renal, 1.58 µM; with BT-549 breast it was 1.58 µM; in the experiment on COLO 205 colon it was 0.814 µM; in the experiment on HOP-92 NSCLC, 2.4 µM; in the experiment on HS 578T breast, 1.96 µM. Further, the GI50 in the experiment on OVCAR-5 ovarian is 1.6 µM; in the experiment with SK-MEL-5 melanoma, 0.262 µM; with SNB-19 CNS, 1.58 µM; with UACC-62 melanoma it was 0.422 µM. Moreover, the TGI in the experiment on A549 NSCLC worked out at 4.11 µM; with ACHN renal it was 4.51 µM; in the experiment with BT-549 breast it was 2.99 µM; in the experiment on COLO 205 colon it was 2.12 µM; with HOP-92 NSCLC, 5.65 µM; in the experiment on HS 578T breast it was 6.95 µM. Besides, the TGI in the experiment with OVCAR-5 ovarian amounted to 3.56 µM; in the experiment with SK-MEL-5 melanoma, 0.899 µM; in the experiment on SNB-19 CNS, 3.37 µM; in the experiment with UACC-62 melanoma, 1.56 µM.
As for `COC(=O)c1cc2ccccc2c2c3c(ccc12)OCO3`, the GI50 in the experiment on A549 NSCLC was 117 µM; in the experiment with ACHN renal, 75.3 µM; with BT-549 breast, 47.1 µM; in the experiment on HOP-92 NSCLC it was 17.4 µM; in the experiment on HS 578T breast, 36.4 µM; in the experiment with OVCAR-5 ovarian, 223 µM. In addition, the GI50 is 45.2 µM in the experiment on SK-MEL-5 melanoma, 73 µM in the experiment on SNB-19 CNS and 40.1 µM with UACC-62 melanoma. Further, the TGI in the experiment on A549 NSCLC was greater than 1000 µM; in the experiment with ACHN renal, greater than 1000 µM; in the experiment on BT-549 breast, 482 µM; with COLO 205 colon, greater than 1000 µM; in the experiment with HOP-92 NSCLC, 73 µM; in the experiment on HS 578T breast, 247 µM. Moreover, the TGI with OVCAR-5 ovarian was greater than 1000 µM; with SK-MEL-5 melanoma it was greater than 1000 µM; in the experiment on SNB-19 CNS it was 990 µM; with UACC-62 melanoma, greater than 1000 µM.
As for `O=[N+]([O-])c1ccc(N=Nc2ccc(O)c3ccccc23)cc1`, the GI50 in the experiment with A549 NSCLC was 12 µM; with ACHN renal it was 3.13 µM; in the experiment on BT-549 breast, 5.07 µM; in the experiment with COLO 205 colon it was 13.2 µM; with HOP-92 NSCLC, 0.281 µM; in the experiment with HS 578T breast it was 2.42 µM. For the same molecule, the GI50 with OVCAR-5 ovarian was 14.4 µM; with SK-MEL-5 melanoma, 2.55 µM; in the experiment on SNB-19 CNS, 4.76 µM; in the experiment on UACC-62 melanoma it was 4.76 µM. The TGI in the experiment on A549 NSCLC was greater than 100 µM; with ACHN renal, greater than 100 µM; in the experiment on BT-549 breast, 46.7 µM; in the experiment on COLO 205 colon, 32.1 µM; with HOP-92 NSCLC, 2.94 µM; with HS 578T breast, 29.9 µM. The TGI with OVCAR-5 ovarian is 75.8 µM; in the experiment with SK-MEL-5 melanoma, 13.6 µM; in the experiment on SNB-19 CNS, greater than 100 µM; with UACC-62 melanoma it was 32.9 µM.
